The text below walks through data of patent US12723233B2, “Media and methods for differentiating natural killer cells” (STEMCELL Technologies Canada Inc., priority 2018, dated 2026).

Type in all cases: cell-based, Human
In assay [1] the test system is sorted day 14 populations of NK cell progenitors. Nature of the assay: Differentiation of sorted day 14 NK cell progenitor subsets to CD56+ NK cells, cultured another 14 days. The source says:
CD34^+ CB cells were isolated and cultured as described in Example 1 up to the day 14 time point. NK cell progenitors derived from CB CD34^+ HSPCs after 14 days of culture were stained, essentially as described in Example 3, with antibodies against markers CD5, CD7, and CD56. CD56^− cells were gated and CD7^+CD5^−, CD7^+CD5^+, CD5^−CD7^− cells were sorted using a BD FACSAria Fusion fluorescence-activated cell sorter. To investigate which subset of the day 14 population of NK cell progenitors is targeted by pyrimidoindole compounds, the CD7^+CD5^−, CD7^+CD5^+ and CD7^−CD5^− sorted populations were each cultured for another 14 days in NK Cell Differentiation medium without or with UM729. CD34^+ CB cells were isolated and cultured as described in Example 1 up to the day 14 time point. NK cell progenitors derived from CB CD34^+ HSPCs after 14 days of culture were stained, essentially as described in Example 3, with antibodies against markers CD5, CD7, CD34, and CD56. CD56^− cells were gated and […], and CD34^− CD7^+CD5^− and CD34^−CD7^+CD5^+ were sorted using a BD FACSAria Fusion fluorescence-activated cell sorter. CD7 cells were sorted as a negative control. To investigate which subset of the day 14 population of NK cell progenitors is targeted by pyrimidoindole compounds, the CD34^+CD7^+CD5^− and CD34^+CD7^+CD5^+, and CD34^−CD7^+CD5^− and CD34^− CD7^+CD5^+ sorted populations were each cultured for another 14 days in NK Cell Differentiation medium with or without UM729.

Assay [2] has as its system PSC-derived NK cell progenitors. The experiment in a line: Differentiation of PSC-derived NK cell progenitors to CD56+ cells. The conditions noted are these: PSC lines 1C, M001, H1, F016; UM729 during days 24 to 38. How it is done:
Three induced pluripotent stem cell (iPSC) lines—WLS-1C, STiPSC M001, and STiPS F016—and one embryonic stem cell (ESC) line—H1 were maintained in mTeSR™ 1. The PSC were harvested and dissociated using accutase into single cell suspensions and were filtered using 37 μm reversible strainer (STEMCELL Technologies).
Single cell suspensions of PSC were seeded into AggreWell plates (STEMCELL Technologies) to form 500-cell aggregates. The seeded cells were cultured in a mesoderm differentiation medium and 10 μM Y027632 (STEMCELL Technologies). After 3 days (i.e. on day 3) in culture the medium was changed to induce hematopoietic lineage differentiation. After 7 days (i.e. on day 10) in culture the aggregates were harvested and dissociated using collagenase II and a trypsin-containing solution.
Dissociated cells were enriched for CD34^+ cells using EasySep™ Human CD34 Positive Selection Kit II (STEMCELL Technologies, catalogue #17856). […]
The cells were stained for CD56 essentially as described in Example 3 and analyzed for frequency of CD56^+ cells and yield of CD56^+ cells per 5×10^4 input PSC-derived CD34^+ cells. […]

Assay [3] relates to PSC-derived CD34+ cells. The experiment in a line: Differentiation of PSC-derived CD34+ cells into CD5+CD7+ NK cell progenitors. The conditions noted are these: 1 μM UM729 during days 10 to 24; PSC lines 1C, M001, H1, F016. How it is done:
PSC-derived […] cells were generated as described in Example 11. The PSC-derived […] cells were cultured as described in Example 11, except the effect of the presence or absence of 1 μM UM729 on the differentiation of a population of NK cell progenitors was assessed. The cells were stained for CD5 and CD7 essentially as described in Example 3 and analyzed for frequency of CD5^+CD7^+ cells and yield of CD5^+CD7^+ cells per 5×10^4 input PSC-derived […] cells. Both the frequency (FIG. 15A) and yield (FIG. 15B) of CD5^+CD7^+ cells decreased after culturing the PSC-derived […] cells in the presence of UM729, as compared to culturing such cells in the absence of UM729. Therefore, the presence of UM729 during days 10 to 24 of culturing PSC-derived […] cells decreases the frequency and yield of CD5^+CD7^+ NK progenitor cells.

Where [4] appears, read: sorted CD7+CD5+ cells, 14 days with UM729, three donors.
Where [5] appears, read: sorted CD7+CD5− cells, 14 days with UM729, three donors.
Setting [6] is: sorted CD34−CD7+CD5+ cells, 14 days with UM729.
[7] abbreviates: sorted CD34−CD7+CD5− cells, 14 days with UM729.

On to `COC(=O)c1ccc2c(c1)[nH]c1ncnc(NCCCN3CCCCC3)c12` [UM729, methyl 4-((3-(piperidin-1-yl)propyl)amino)-9H-pyrimido[4,5-b]indole-7-carboxylate], for which, in assay [1] (setting [4]), the “Frequency of NK cells compared to culture conditions lacking UM729” value was “higher” and the “Yield of NK cells compared to culture conditions lacking UM729” value is given as “higher”. Further, in assay [1] (setting [5]), the “Frequency of NK cells compared to culture conditions lacking UM729” value is recorded as “higher” and the “Yield of NK cells compared to culture conditions lacking UM729” value is “higher”. For the same compound, the “Expansion and differentiation to NK cells” value in assay [1] (sorted CD7−CD5− cells, presence or absence of UM729) was “did not expand and differentiate to NK cells”. Also, in assay [1] (sorted CD34+CD7+CD5− and CD34+CD7+CD5+ cells, 14 days with UM729), the “Responsiveness of CD34+ NK progenitor cell subsets to UM729” value is given as “do not appear responsive”. Further, in assay [1] (setting [6]), the “Frequency of NK cells compared to culture conditions lacking UM729” value was “higher” and the “Yield of NK cells compared to culture conditions lacking UM729” value was “higher”. Moreover, in assay [1] (setting [7]), the “Frequency of NK cells compared to culture conditions lacking UM729” value is on record as “higher” and the “Yield of NK cells compared to culture conditions lacking UM729” value was “higher”. In addition, in assay [2], the “Frequency of CD56+ cells compared to absence of UM729” value is reported as “increased” and the “Yield of CD56+ cells per 5×10^4 input PSC-derived CD34+ cells compared to absence of UM729” value is on record as “increased”. In addition, in assay [3], the “Frequency of CD5+CD7+ cells compared to absence of UM729” value is “decreased” and the “Yield of CD5+CD7+ cells per 5×10^4 input PSC-derived cells compared to absence of UM729” value was “decreased”.
